From PubChem BioAssay AID463223 (The Scripps Research Institute Molecular Screening Center, 2010) come the findings set out here.

SMILES strings stand for the structures. The source made the active and inactive calls. How the calls were made is not given here.

The target of the assay is Serine/threonine-protein phosphatase 5 (Homo sapiens) (UniProt P53041). The assay is described as follows: blocking PP5 removal of histone phosphate – biochemical, radiolabel, single concentration, PP5 inhibitor project, late-stage follow-up (AID 463223). To be noted: purified PP5c, 33P-phosphohistone radiolabel assay, scintillation counting, 10 min; at 10 µM; hits give high values.
Chain of Serine/threonine-protein phosphatase 5 (Homo sapiens) (P53041 whole entry, looked up): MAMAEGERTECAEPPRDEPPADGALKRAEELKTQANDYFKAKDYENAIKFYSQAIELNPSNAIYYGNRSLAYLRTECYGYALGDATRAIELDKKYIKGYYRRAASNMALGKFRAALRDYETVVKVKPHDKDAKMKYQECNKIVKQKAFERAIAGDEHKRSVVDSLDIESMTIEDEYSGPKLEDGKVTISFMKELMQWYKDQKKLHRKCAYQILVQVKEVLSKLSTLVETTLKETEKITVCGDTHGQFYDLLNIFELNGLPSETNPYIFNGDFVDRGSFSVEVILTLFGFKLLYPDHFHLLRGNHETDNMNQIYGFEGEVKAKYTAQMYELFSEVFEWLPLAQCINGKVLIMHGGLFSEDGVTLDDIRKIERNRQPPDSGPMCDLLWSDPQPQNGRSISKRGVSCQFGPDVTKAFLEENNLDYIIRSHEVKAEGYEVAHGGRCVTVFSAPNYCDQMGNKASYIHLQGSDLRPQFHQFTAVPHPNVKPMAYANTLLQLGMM
As for `COc1ccc(Sc2nc(-c3ccccn3)ncc2OC)cc1`, the inhibition is 1.12% (inactive).

On to `O=C(O)c1n[nH]nc1-c1ccccc1`, for which the inhibition is 31.1%.

Turning to `c1ccc(Nc2nc(-c3ccccn3)cs2)cc1`, the inhibition is -1.08% (inactive).

With `O=C(O)c1cc(-c2ccc(Cl)c(Cl)c2)n(-c2ccccc2)n1`, the inhibition was 0.56% (inactive).

Take `Oc1cccc(/C=N/Nc2cc(N3CCCC3)nc(N3CCCC3)n2)c1`: the inhibition was 1.73% (inactive).

Consider `O=C(O)c1cc(-c2ccc(Cl)cc2)n(-c2cccc(Cl)c2)n1`, for which the inhibition was 2.43% (inactive).

Turning to `CCCN(CC1CC1)c1nc(N)c2c(N)nc(OC)cc2c1C#N`, the inhibition is 0.96% (inactive).

Turning to `CCOC(=O)c1nn(-c2ccc(C)cc2)c(=O)c2c(N)scc12`, the inhibition is 0.85% (inactive).

In the case of `COc1ccc(OCCCC(=O)Nc2nc(-c3ccccn3)cs2)cc1`, the inhibition was -1.62% (inactive).

Take `CC(C)(CS(=O)(=O)[O-])NC(=O)CC[N+](C)(C)CCO`: the inhibition is 2.71% (inactive).

With `O=c1[nH]c(Nc2ccccc2)cc2ccccc12`, the inhibition was 0.47% (inactive).

`Cc1ccc(-n2nc(C(=O)O)cc2-c2ccc(Cl)cc2)cc1`: the inhibition was 1.91% (inactive).

Take `CCOC(=O)c1cnc(-n2cc(C)cn2)nc1NCc1ccc2c(c1)OCO2`: the inhibition was -0.82% (inactive).

Turning to `CCOC(=O)c1cnc(-n2nc(C)cc2C)nc1NCc1ccccc1`, the inhibition is 3.11% (inactive).

For the molecule `COc1cnc(-c2ccccn2)nc1Sc1ccccc1`, the inhibition is -1.46% (inactive).

In the case of `Cc1[nH]n(-c2ccccc2)c(=O)c1C(c1ccc([N+](=O)[O-])cc1)c1c(C)[nH]n(-c2ccccc2)c1=O`, the inhibition is 3.51% (inactive).

Turning to `Cc1nnc(NC(=O)C2C3C=CC(O3)C2C(=O)O)s1` (centres undefined), the inhibition is 16%.

For `Nc1cc2nsnc2cc1Br`, the inhibition was 1.86% (inactive).

For the molecule `Oc1ccccc1/C=N/Nc1cc(N2CCCC2)nc(N2CCCC2)n1`, the inhibition is 3.34% (inactive).

Regarding `COc1cnc(-c2ccccn2)nc1Sc1ccccc1Cl`, the inhibition is 0.33% (inactive).

As for `O=S(=O)(Cc1cc(NCc2ccccc2)nc(-c2ccccn2)n1)c1ccccc1`, the inhibition is 8.88% (inactive).

On to `COc1ccccc1Sc1nc(-c2ccccn2)ncc1OC`, for which the inhibition is -2.42% (inactive).

In the case of `O=C(NC1(O)C(=O)c2ccccc2C1=O)c1ccc(C(F)(F)F)cc1`, the inhibition is -0.52% (inactive).

Consider `COc1ccc(Cn2c(N)c(C(=O)NCc3ccco3)c3nc4ccccc4nc32)cc1OC`, for which the inhibition was 0.41% (inactive).

Consider `COc1cnc(-c2ccccn2)nc1Sc1cccc(Cl)c1`, for which the inhibition is -0.66% (inactive).

`Cc1ccc(C(=O)NC2(O)C(=O)c3ccccc3C2=O)cc1C`: the inhibition was 2.14% (inactive).

Regarding `COc1cnc(-c2ccccn2)nc1Sc1ccc(Cl)cc1`, the inhibition is -3.05% (inactive).

Turning to `Cc1ccc(C(=O)NNc2cc(N3CCCC3)nc(N3CCCC3)n2)cc1`, the inhibition was 0.83% (inactive).

Turning to `COc1cnc(-c2ccccn2)nc1Oc1cccc(Cl)c1`, the inhibition is -1.35% (inactive).

As to `c1ccc(-c2nccc(-c3ccc(-n4cnc5ccccc54)cc3)n2)nc1`, the inhibition was 9.23% (inactive).

On to `COc1cc(Br)c(C(=O)c2nccc3cc(OC)c(OC)cc23)cc1OC`, for which the inhibition was 1.9% (inactive).

On to `COc1ccc(Cl)cc1C(=O)Nc1cccc(-c2ccc3nncn3n2)c1`, for which the inhibition is -1.12% (inactive).

As for `O=C(NC1(O)C(=O)c2ccccc2C1=O)c1ccccc1`, the inhibition is 1.84% (inactive).

Take `CCOC(=O)c1cnc(-n2nc(C)cc2C)nc1NCCc1ccccc1`: the inhibition was 0.06% (inactive).

Take `COc1ccc2c(Cl)c(C(=O)N/N=C/c3ccc4c(c3)OCO4)sc2c1`: the inhibition is -0.4% (inactive).

`O=C1Nc2ccccc2N2CCCC12` (centres undefined): the inhibition is -0.58% (inactive).

In the case of `Oc1ccc(/C=N/Nc2cc(N3CCOCC3)nc(N3CCOCC3)n2)c(O)c1`, the inhibition was 0.87% (inactive).

As to `COc1ccc(CN2C(=O)Cc3c2nc(N)c2c(N)nc(N4CCCCC4)c(C#N)c32)cc1`, the inhibition was -2.57% (inactive).

Consider `COc1cnc(-c2ccccn2)nc1Oc1cccc(C(F)(F)F)c1`, for which the inhibition is -2.17% (inactive).

Turning to `CCCCn1c(NC(=O)c2ccco2)c(C(=O)OCC)c2nc3ccccc3nc21`, the inhibition was 2.8% (inactive).

`Clc1ccc(-n2nnnc2-c2cnc(-c3ccccn3)nc2-c2cccs2)cc1`: the inhibition was -0.04% (inactive).

For the molecule `CCn1c2ccccc2c2cc(NC(=O)COC(=O)c3ccc(NC(=O)CC#N)cc3)ccc21`, the inhibition was -0.66% (inactive).

On to `COc1ccc(NC(=S)Nc2ccc3nsnc3c2)cc1`, for which the inhibition is -2.27% (inactive).

Regarding `CCOC(=O)c1cnc(-n2nc(C)cc2C)nc1NC1CCCCC1`, the inhibition was 1.15% (inactive).

As to `COc1ccc(C(=O)c2nccc3cc(OC)c(OC)cc23)cc1OC`, the inhibition was 1.93% (inactive).

Consider `CCOC(=O)c1sc2nc3c(SCC(=O)O)cc(C(=O)c4cc(F)ccc4O)cn3c(=O)c2c1C`, for which the inhibition is 14.5% (inactive).

Consider `CCOC(=O)c1cnc(-n2nc(C)cc2C)nc1NC(C)c1ccccc1` (centres undefined), for which the inhibition is 0.17% (inactive).

For `COc1cnc(-c2ccccn2)nc1Sc1ccc(F)cc1`, the inhibition is -3.12% (inactive).

For `COc1cnc(-c2ccccn2)nc1Sc1ccc(C)cc1`, the inhibition is -1.26% (inactive).

`O=C(Nc1nc(-c2ccccn2)cs1)C1CC(=O)N(c2ccc3c(c2)OCCO3)C1` (centres undefined): the inhibition was -3.02% (inactive).

On to `CC(=O)C(C(C)=O)C1(O)C(=O)c2ccccc2C1=O`, for which the inhibition was 2.52% (inactive).

For the molecule `O=C(O)c1cc(-c2ccc(Cl)c(Cl)c2)n(-c2ccc(F)cc2)n1`, the inhibition was -0.91% (inactive).

In the case of `CN1CCN(C(c2ccccn2)c2cc(Cl)c3cccnc3c2O)CC1` (centres undefined), the inhibition is -2.91% (inactive).

`N#Cc1c(-c2ccc(Cl)cc2)cc(-c2cccs2)nc1SCC(=O)O`: the inhibition is 12.1% (inactive).

Turning to `CCOC(=O)C1=C(C)OC2(O)c3ccccc3C(=O)C12O` (centres undefined), the inhibition is -1.47% (inactive).

Regarding `CCOC(=O)c1sc(N2C(=O)C(O)=C(C(=O)c3ccco3)C2c2cccc([N+](=O)[O-])c2)nc1C` (centres undefined), the inhibition was 9.04% (inactive).

Take `O=C(O)C1C2CCC(O2)C1C(=O)NC1CCCCC1` (centres undefined): the inhibition was 45.9%.

For the molecule `CCCCN(CC)c1nc(N)c2c(N)nc(OCC)cc2c1C#N`, the inhibition was 2.68% (inactive).

In the case of `O=C1CCCC2=C1C1(O)C(=O)c3ccccc3C1(O)O2` (centres undefined), the inhibition was 4.95% (inactive).

Turning to `COc1ccc(NC(=O)C2C3CCC(O3)C2C(=O)O)c(OC)c1` (centres undefined), the inhibition was 49.1%.

Regarding `N#Cc1c(N2CCCC(O)C2)nc(N)c2c(N)nc3c(c12)CC(=O)N3C12CC3CC(CC(C3)C1)C2` (centres undefined), the inhibition was -0.93% (inactive).

With `Nc1nc(-c2ccccn2)nc(N)c1Cc1ccc(Cl)cc1Cl`, the inhibition was -1.92% (inactive).

Take `CCOc1ccc(NC(=S)Nc2ccc3nsnc3c2)cc1`: the inhibition was -0.34% (inactive).

In the case of `O=C(NC1(O)C(=O)c2ccccc2C1=O)c1c(Cl)cccc1Cl`, the inhibition is -1.34% (inactive).

Usually inhibition stands for the change of the read-out against control, counted positive when it falls.
